These results are taken from DBAASP.

In brackets after ≈: the same amount, converted by molar mass.

Some test systems named below: Staphylococcus aureus; Escherichia coli; Pseudomonas aeruginosa.
Common to all, as to test: ≥ marks a high value that may be exact or a test limit, other limits are often not marked, values filed in µg/mL are converted to µM
Assay [1] has as its system Escherichia coli ATCC 25922.
The test system of assay [2] is Staphylococcus aureus ATCC 29213.
The test system of assay [3] is Pseudomonas aeruginosa ATCC 27853.
The test system of assay [4] is Pseudomonas aeruginosa PAO1.
In assay [5] the test system is Staphylococcus aureus ATCC 25923.

As usually defined, the MIC is the least concentration at which growth counts as inhibited. As to `CC[C@H](C)[C@H](NC(=O)[C@H](CC(=O)O)NC(=O)[C@H](CC(C)C)NC(=O)[C@@H](NC(=O)CN)C(C)C)C(=O)N[C@@H](CC(C)C)C(=O)N[C@@H](CCCCN)C(=O)NCC(=O)N[C@@H](C)C(=O)N[C@@H](C)C(=O)N[C@@H](CCCCN)C(=O)N[C@@H](CC(=O)O)C(=O)N[C@@H](CC(C)C)C(=O)N[C@@H](C)C(=O)NCC(=O)N[C@@H](Cc1cnc[nH]1)C(=O)O` [GVLDILKGAAKDLAGH], the results for the minimum inhibitory concentration (MIC) in assay [1] and in assay [2] were 10.1 µM (≈ 15.9 µg/mL) and 40.5 µM (≈ 63.9 µg/mL), respectively.
Regarding `CC[C@H](C)[C@H](NC(=O)[C@H](CCCN=C(N)N)NC(=O)[C@H](CCCN=C(N)N)NC(=O)[C@@H](N)CCC(N)=O)C(=O)N[C@@H](CCCN=C(N)N)C(=O)N[C@H](C(=O)N[C@@H](CCCN=C(N)N)C(=O)N[C@@H](CC(C)C)C(=O)N[C@@H](CO)C(=O)N[C@@H](C)C(=O)O)C(C)C` [QRRIRVRLSA], the minimum inhibitory concentration (MIC) was 12.8 µM (≈ 16 µg/mL) in assay [1], 51 µM (≈ 64 µg/mL) in assay [3] and over 51 µM in assay [2].
As to `CC[C@H](C)[C@H](NC(=O)[C@H](C)NC(=O)[C@H](CO)NC(=O)[C@H](CC(C)C)NC(=O)[C@@H](N)Cc1ccccc1)C(=O)N[C@@H](C)C(=O)N[C@@H](CO)C(=O)N[C@@H](CCSC)C(=O)N[C@@H](CC(C)C)C(=O)NCC(=O)N[C@@H](CCCCN)C(=O)N[C@@H](Cc1ccccc1)C(=O)N[C@@H](CC(C)C)C(=O)O` [FLSAIASMLGKFL], in the assay with Staphylococcus aureus, the minimum inhibitory concentration (MIC) amounted to 200 µM (≈ 280 µg/mL).
On to `CC[C@H](C)[C@H](NC(=O)CNC(=O)[C@H](CO)NC(=O)[C@H](CC(C)C)NC(=O)[C@@H](NC(=O)CN)[C@@H](C)CC)C(=O)N[C@@H](CC(C)C)C(=O)NCC(=O)N[C@@H](CCSC)C(=O)NCC(=O)N[C@@H](CCCCN)C(=O)N[C@@H](CCCCN)C(=O)N[C@@H](CC(C)C)C(=O)N[C@H](C(=O)N[C@H]1CSSC[C@@H](C(=O)O)NC(=O)[C@H](CC(C)C)NC(=O)CNC(=O)[C@H](CO)NC(=O)[C@H](CC(C)C)NC(=O)CNC1=O)C(C)C` [GILSGILGMGKKLVCGLSGLC], for which the minimum inhibitory concentration (MIC) against Escherichia coli came to 15 µM (≈ 30.3 µg/mL); against Staphylococcus aureus it was 50 µM (≈ 101 µg/mL).
Consider `CC(=O)N[C@@H](CCCCN)C(=O)N[C@@H](CC(C)C)C(=O)N[C@@H](CC(C)C)C(=O)N[C@@H](CCCCN)C(=O)N1CCC[C@H]1C(=O)N[C@@H](CC(C)C)C(=O)N[C@@H](CCCCN)C(=O)N[C@@H](CCCCN)C(=O)N[C@@H](CC(C)C)C(=O)N[C@@H](CC(C)C)C(=O)N[C@@H](CCCCN)C(=O)N[C@@H](CC(C)C)C(=O)N[C@@H](CC(C)C)C(=O)N[C@@H](CCCCN)C(N)=O` [KLLKPLKKLLKLLK], for which the MIC turned out to be 20 µM (≈ 34.3 µg/mL) in assay [1] and 28.3 µM (≈ 48.6 µg/mL) in assay [2].
For the molecule `CC[C@H](C)[C@H](NC(=O)[C@H](CCCCN)NC(=O)[C@H](CCCN=C(N)N)NC(=O)[C@@H](N)CCC(N)=O)C(=O)N[C@@H](CCCN=C(N)N)C(=O)N[C@H](C(=O)N[C@@H](CCCN=C(N)N)C(=O)N[C@@H](CC(C)C)C(=O)N[C@@H](CO)C(=O)N[C@@H](C)C(=O)O)C(C)C` [QRKIRVRLSA], the results for the MIC in assay [1], in assay [3] and in assay [2] were 1.63 µM (≈ 2 µg/mL), 3.26 µM (≈ 4 µg/mL) and over 52.2 µM, respectively.
For `CC[C@H](C)[C@H](NC(=O)[C@H](Cc1ccccc1)NC(=O)[C@H](CO)NC(=O)[C@H](CCCCN)NC(=O)[C@H](Cc1c[nH]c2ccccc12)NC(=O)[C@@H](N)CCCCN)C(=O)N[C@@H](CC(N)=O)C(=O)N[C@@H](CCCCN)C(=O)N[C@@H](CC(C)C)C(=O)N[C@H](C(=O)N[C@@H](CO)C(=O)N[C@@H](CCCCN)C(=O)N[C@@H](Cc1ccccc1)C(=O)N[C@@H](CC(C)C)C(=O)N[C@@H](Cc1cnc[nH]1)C(=O)N[C@@H](CO)C(=O)N[C@@H](C)C(=O)N[C@@H](CCCCN)C(=O)N[C@@H](CCCCN)C(=O)N[C@@H](Cc1ccccc1)C(N)=O)[C@@H](C)O` [KWKSFINKLTSKFLHSAKKF], in the assay with Pseudomonas aeruginosa, the minimum inhibitory concentration (MIC) came out at 5.13 µM (≈ 12.5 µg/mL).
Turning to `CC(C)C[C@H](NC(=O)CNC(=O)[C@H](C)NC(=O)[C@H](CC(C)C)NC(=O)[C@H](CCCCN)NC(=O)[C@H](CCCCN)NC(=O)[C@H](C)NC(=O)[C@H](CC(C)C)NC(=O)CNC(=O)[C@H](C)NC(=O)[C@H](CC(C)C)NC(=O)[C@H](CCCCN)NC(=O)[C@H](CCCCN)NC(=O)[C@H](C)NC(=O)[C@H](CC(C)C)NC(=O)CNC(=O)[C@H](C)NC(=O)[C@H](CC(C)C)NC(=O)[C@@H](N)CCCCN)C(=O)N[C@@H](C)C(=O)N[C@@H](CCCCN)C(N)=O` [KLAGLAKKLAGLAKKLAGLAK], the minimum inhibitory concentration (MIC) in assay [1] was found to be 3.88 µM (≈ 8 µg/mL); in assay [3], 62 µM (≈ 128 µg/mL); in assay [2], 7.75 µM (≈ 16 µg/mL).
In assay [4], `CC[C@H](C)[C@H](NC(=O)[C@@H](NC(=O)[C@H](CC(N)=O)NC(=O)[C@H](CC(C)C)NC(=O)[C@H](CCSC)NC(=O)[C@@H](NC(=O)[C@H](Cc1ccccc1)NC(=O)[C@H](Cc1ccccc1)NC(=O)[C@H](CC(N)=O)NC(=O)[C@H](CCCCN)NC(=O)[C@H](CC(C)C)NC(=O)[C@H](CC(N)=O)NC(=O)[C@H](CCCCN)NC(=O)[C@@H](NC(=O)[C@@H](NC(=O)[C@@H](NC(=O)[C@H](C)NC(=O)[C@@H](NC(=O)[C@H](CCCCN)NC(=O)[C@@H](N)CCCCN)[C@@H](C)CC)[C@@H](C)CC)[C@@H](C)CC)[C@@H](C)O)[C@@H](C)CC)[C@@H](C)CC)C(=O)O` [KKIAIITKNLKNFFIMLNII] had an MIC of over 128 µM.
Regarding `CC(C)C[C@H](NC(=O)CNC(=O)[C@H](CCCCN)NC(=O)[C@H](C)NC(=O)[C@H](CC(C)C)NC(=O)[C@H](CCCCN)NC(=O)[C@H](C)NC(=O)[C@H](CC(C)C)NC(=O)CNC(=O)[C@H](CCCCN)NC(=O)[C@H](C)NC(=O)[C@H](Cc1c[nH]c2ccccc12)NC(=O)[C@H](CCCCN)NC(=O)[C@H](C)NC(=O)[C@H](CC(C)C)NC(=O)CNC(=O)[C@H](CCCCN)NC(=O)[C@H](C)NC(=O)[C@H](CC(C)C)NC(=O)[C@@H](N)CCCCN)C(=O)N[C@@H](C)C(N)=O` [KLAKGLAKWAKGLAKLAKGLA], the minimum inhibitory concentration (MIC) with Escherichia coli was found to be 3.74 µM (≈ 8 µg/mL); against Pseudomonas aeruginosa, 15 µM (≈ 32 µg/mL); with Staphylococcus aureus, 3.74 µM (≈ 8 µg/mL).
Take `NCC(=O)N[C@@H](CCCN=C(N)N)C(=O)N[C@@H](CCCN=C(N)N)C(=O)N1CCC[C@H]1C(=O)N[C@@H](CCCN=C(N)N)C(=O)N1CCC[C@H]1C(=O)N[C@@H](CCCN=C(N)N)C(=O)N1CCC[C@H]1C(=O)N[C@@H](CCCN=C(N)N)C(=O)N1CCC[C@H]1C(N)=O` [GRRPRPRPRP]: the MIC in assay [1], in assay [3] and in assay [2] was over 160 µM throughout.
In the assay with Pseudomonas aeruginosa, `CC(C)C[C@H](NC(=O)[C@H](Cc1ccccc1)NC(=O)[C@H](CCCCN)NC(=O)[C@H](CO)NC(=O)[C@@H](NC(=O)[C@H](CC(C)C)NC(=O)[C@H](CCCCN)NC(=O)[C@H](CCCCN)NC(=O)[C@H](CCCCN)NC(=O)[C@H](Cc1ccccc1)NC(=O)[C@H](CO)NC(=O)[C@H](CCCCN)NC(=O)[C@H](Cc1c[nH]c2ccccc12)NC(=O)[C@@H](N)CCCCN)[C@@H](C)O)C(=O)N[C@@H](Cc1cnc[nH]1)C(=O)N[C@@H](CO)C(=O)N[C@@H](C)C(=O)N[C@@H](CCCCN)C(=O)N[C@@H](CCCCN)C(=O)N[C@@H](Cc1ccccc1)C(N)=O` [KWKSFKKKLTSKFLHSAKKF] showed an MIC of 5.06 µM (≈ 12.5 µg/mL).
As to `CC(=O)N[C@@H](CC(C)C)C(=O)N[C@@H](CCCCN)C(=O)N[C@@H](CCCCN)C(=O)N[C@@H](CC(C)C)C(=O)N[C@@H](CC(C)C)C(=O)N[C@@H](CCCCN)C(=O)N[C@@H](CC(C)C)C(=O)N[C@@H](CC(C)C)C(=O)N[C@@H](CCCCN)C(=O)N1CCC[C@H]1C(=O)N[C@@H](CC(C)C)C(=O)N[C@@H](CC(C)C)C(=O)N[C@@H](CCCCN)C(=O)N[C@@H](CC(C)C)C(N)=O` [LKKLLKLLKPLLKL], the MIC in assay [1] amounted to 5 µM (≈ 8.51 µg/mL); in assay [2], 2.5 µM (≈ 4.26 µg/mL).
Regarding `C[C@H](NC(=O)[C@H](Cc1c[nH]c2ccccc12)NC(=O)[C@H](CCCN=C(N)N)NC(=O)[C@H](CCCN=C(N)N)NC(=O)[C@H](C)NC(=O)[C@H](CCCCN)NC(=O)[C@@H](N)Cc1ccc(O)cc1)C(=O)N[C@@H](Cc1c[nH]c2ccccc12)C(=O)N[C@@H](CCCN=C(N)N)C(=O)N[C@@H](Cc1c[nH]c2ccccc12)C(=O)N[C@@H](CCCCN)C(=O)O` [YKARRWAWRWK], the MIC in assay [1] came to 12.4 µM (≈ 20 µg/mL); in assay [3] it was 31.1 µM (≈ 50 µg/mL); in assay [5] it was 12.4 µM (≈ 20 µg/mL).
`CC(C)C[C@H](NC(=O)[C@H](CCCN=C(N)N)NC(=O)CNC(=O)CNC(=O)[C@@H](N)CCCN=C(N)N)C(=O)N[C@H]1CSSC[C@@H](C(=O)N[C@@H](CCC(=O)O)C(=O)O)NC(=O)[C@H](C(C)C)NC(=O)[C@@H]2CSSC[C@H](NC(=O)[C@H](Cc3ccc(O)cc3)NC1=O)C(=O)N[C@@H](CCCN=C(N)N)C(=O)N[C@@H](CCCN=C(N)N)C(=O)N[C@@H](CCCN=C(N)N)C(=O)N[C@@H](Cc1ccccc1)C(=O)N2` [RGGRLCYCRRRFCVCE]: in the assay with Escherichia coli, the minimal inhibitory concentration (MIC) was determined as 0.303 µM (≈ 0.599 µg/mL).
Turning to `CC(C)C[C@H](NC(=O)[C@H](CCCCN)NC(=O)[C@H](CC(C)C)NC(=O)[C@H](CC(C)C)NC(=O)[C@H](CCCCN)NC(=O)[C@H](CCCCN)NC(=O)[C@H](CO)NC(=O)[C@H](CC(C)C)NC(=O)[C@H](CCCCN)NC(=O)[C@H](CC(C)C)NC(=O)[C@H](CC(C)C)NC(=O)[C@H](CCCCN)NC(=O)[C@H](CCCCN)NC(=O)[C@@H](N)CC(C)C)C(=O)N[C@@H](C)C(=O)NCC(=O)O` [LKKLLKLSKKLLKLAG], the minimum inhibitory concentration (MIC) was 2.5 µM (≈ 4.49 µg/mL) in assay [1] and 10 µM (≈ 17.9 µg/mL) in assay [2].
For `CC(C)C[C@H](NC(=O)[C@H](CCCCN)NC(=O)[C@H](CC(C)C)NC(=O)[C@H](CC(C)C)NC(=O)[C@H](CCCCN)NC(=O)[C@H](CCCCN)NC(=O)[C@H](CCC(=O)O)NC(=O)[C@H](CC(C)C)NC(=O)[C@H](CCCCN)NC(=O)[C@H](CC(C)C)NC(=O)[C@H](CC(C)C)NC(=O)[C@H](CCCCN)NC(=O)[C@H](CCCCN)NC(=O)[C@@H](N)CC(C)C)C(=O)N[C@@H](C)C(=O)NCC(=O)O` [LKKLLKLEKKLLKLAG], in that order: 5 µM (≈ 9.18 µg/mL) and over 40 µM.
